23 compounds from US20240067632A1, “WEE1 Degrading Compounds and Uses Thereof” (Bristol-Myers Squibb Company, priority 2022, published 2024) can be followed below.

The target of the test is T1, WEE1 (Homo sapiens, UniProt P30291+Q96SW2).
T1 construct: C-terminal ePL-tagged (DiscoverX, Fremont, CA) full-length WEE1 expression construct; expressed in transfected cells; host or cells: LentiX-HEK293T (Invitrogen), lentiviral transduction; co-expressing GSPT1-GN (G576N, lacking the first 158 amino acids)
Kind of test: WEE1-ePL degradation assay (LentiX-WEE1-ePL-GSPT1-ND cells, InCELL Hunter luminescence, 4 h). The class given is cell-based. Conditions: 293T-LentiX WEE1-ePL cells; for DC50: read-out: 293T-LentiX WEE1-ePL Degradation 4 hr (EC50). On the procedure: To generate LentiX-WEE1-ePL-GSPT1-ND cells for the WEE1 degradation assay, LentiX-HEK293T (Invitrogen) were transduced by lentivirus with a C-terminal ePL-tagged (DiscoverX, Fremont, CA) full-length WEE1 expression construct. […] Cells were selected and maintained in complete DMEM media (DMEM, 10% Heat Inactivated FBS, 400 μg/mL Geneticin, and 1 μg/mL puromycin at 37 C and 5% CO2). Cells were passaged every 3-4 days by reseeding 1×10^6 cells in a T150 flask.
Cells were dispensed into 384-well white plates (Corning #3570, NY) that were pre-spotted with compounds using an acoustic dispenser (Echo acoustic transfer system, Beckman Coulter Life Sciences, Carlsbad, CA) as a 10-point dose-response curve with a 3-fold dilution starting at either 1 uM or 10 uM and including a DMSO control. Twenty-five microliters of media containing 2500 cells for LentiX-oeWEE1-ePL was dispensed per well. Assay plates were incubated at 37° C. with 5% CO2 for four hours (WEE1) After incubation, 25 μL of the InCELL Hunter™ Detection Reagent Working Solution (DiscoverX, Fremont, CA) was added to each well and incubated at room temperature for 30 minutes protected from light. After 30 minutes, luminescence was read on a PHERAstar luminometer (Cary, NC).
To determine the half-maximal effective concentration (EC50) values for WEE1-ePL degradation, a four parameter logistic model was used: (Sigmoidal Dose-Response Model) (FIT=(A+((B−A)/1+((C/x)^D)))) where C is the inflection point (EC50), D is the Hill slope, and A and B are the low and high limits of the fit respectively). The lower limit of the fit (value A) is referred to as Ymin. […] The maximum limit constraint, Ymax, is similarly derived using DMSO control. The curves were processed and evaluated using Activity Base (IDBS, Alameda, CA).

[1] abbreviates: lower limit of the fit (0 = luciferase inhibitor, Ymax = DMSO control).
Setting [2] is: lower limit of the fit (Ymin=0 luciferase inhibitor, Ymax DMSO control).

On to `O=C1CCC(N2C(=O)c3ccc(O[C@@H]4CCN(Cc5cnc6ccccc6c5)C4)cc3C2=O)C(=O)N1` (stereo partly drawn) [2-(2,6-dioxopiperidin-3-yl)-5-{[(3R)-1-[(quinolin-3-yl)methyl]pyrrolidin-3-yl]oxy}-2,3-dihydro-1H-isoindole-1,3-dione], for which, under setting [1], the “293T-LentiX WEE1-ePL Degradation 4 hr (Ymin)” value was found to be 86.31.
Take `O=C1CCC(N2C(=O)c3ccc(O[C@@H]4CCN(Cc5ccnc6ccccc56)C4)cc3C2=O)C(=O)N1` (stereo partly drawn) [2-(2,6-dioxopiperidin-3-yl)-5-{[(3R)-1-[(quinolin-4-yl)methyl]pyrrolidin-3-yl]oxy}-2,3-dihydro-1H-isoindole-1,3-dione]: under setting [1], the “293T-LentiX WEE1-ePL Degradation 4 hr (Ymin)” value was found to be 90.1.
As for `O=C1CCC(N2C(=O)c3ccc(O[C@@H]4CCN(Cc5cccc6ncccc56)C4)cc3C2=O)C(=O)N1` (stereo partly drawn) [2-(2,6-dioxopiperidin-3-yl)-5-{[(3R)-1-[(quinolin-5-yl)methyl]pyrrolidin-3-yl]oxy}-2,3-dihydro-1H-isoindole-1,3-dione], under setting [1], the “293T-LentiX WEE1-ePL Degradation 4 hr (Ymin)” value turned out to be 89.045.
Still for that read-out and setting: the result for `O=C1CCC(N2C(=O)c3ccc(O[C@@H]4CCN(Cc5ccc6ncccc6c5)C4)cc3C2=O)C(=O)N1` (stereo partly drawn) [2-(2,6-dioxopiperidin-3-yl)-5-{[(3R)-1-[(quinolin-6-yl)methyl]pyrrolidin-3-yl]oxy}-2,3-dihydro-1H-isoindole-1,3-dione] reads 83.71.
For `O=C1CCC(N2Cc3cc(O[C@@H]4CCN(c5cnccn5)C4)ccc3C2=O)C(=O)N1` (stereo partly drawn) [3-(1-oxo-5-{[(3R)-1-(pyrazin-2-yl)pyrrolidin-3-yl]oxy}-2,3-dihydro-1H-isoindol-2-yl)piperidine-2,6-dione], the “293T-LentiX WEE1-ePL Degradation 4 hr (Ymin)” value under setting [2] amounted to 110.
`O=C1CCC(N2Cc3cc(O[C@@H]4CCN(Cc5c[nH]c6ncccc56)C4)ccc3C2=O)C(=O)N1` (stereo partly drawn) [3-(1-oxo-5-{[(3R)-1-({1H-pyrrolo[2,3-b]pyridin-3-yl}methyl)pyrrolidin-3-yl]oxy}-2,3-dihydro-1H-isoindol-2-yl)piperidine-2,6-dione]: the “293T-LentiX WEE1-ePL Degradation 4 hr (Ymin)” value under setting [2] was found to be 87.61.
On to `O=C1CCC(N2Cc3cc(O[C@@H]4CCN(Cc5c[nH]c6cnccc56)C4)ccc3C2=O)C(=O)N1` (stereo partly drawn) [3-(1-oxo-5-{[(3R)-1-({1H-pyrrolo[2,3-c]pyridin-3-yl}methyl)pyrrolidin-3-yl]oxy}-2,3-dihydro-1H-isoindol-2-yl)piperidine-2,6-dione], for which the “293T-LentiX WEE1-ePL Degradation 4 hr (Ymin)” value under setting [2] is 93.39.
In the case of `O=C1CCC(N2Cc3cc(O[C@@H]4CCN(Cc5cnc6ccccc6c5)C4)ccc3C2=O)C(=O)N1` (stereo partly drawn) [3-(1-oxo-5-{[(3R)-1-[(quinolin-3-yl)methyl]pyrrolidin-3-yl]oxy}-2,3-dihydro-1H-isoindol-2-yl)piperidine-2,6-dione], under setting [2], the “293T-LentiX WEE1-ePL Degradation 4 hr (Ymin)” value worked out at 83.91.
Regarding `O=C1CCC(N2Cc3cc(O[C@@H]4CCN(Cc5ccnc6ccccc56)C4)ccc3C2=O)C(=O)N1` (stereo partly drawn) [3-(1-oxo-5-{[(3R)-1-[(quinolin-4-yl)methyl]pyrrolidin-3-yl]oxy}-2,3-dihydro-1H-isoindol-2-yl)piperidine-2,6-dione], the “293T-LentiX WEE1-ePL Degradation 4 hr (Ymin)” value under setting [2] came to 87.11.
For the compound `O=C1CCC(N2Cc3cc(O[C@@H]4CCN(Cc5cccc6ncccc56)C4)ccc3C2=O)C(=O)N1` (stereo partly drawn) [3-(1-oxo-5-{[(3R)-1-[(quinolin-5-yl)methyl]pyrrolidin-3-yl]oxy}-2,3-dihydro-1H-isoindol-2-yl)piperidine-2,6-dione], under setting [2], the “293T-LentiX WEE1-ePL Degradation 4 hr (Ymin)” value is 91.51.
With `O=C1CCC(N2Cc3cc(O[C@@H]4CCN(Cc5ccc6ncccc6c5)C4)ccc3C2=O)C(=O)N1` (stereo partly drawn) [3-(1-oxo-5-{[(3R)-1-[(quinolin-6-yl)methyl]pyrrolidin-3-yl]oxy}-2,3-dihydro-1H-isoindol-2-yl)piperidine-2,6-dione], the “293T-LentiX WEE1-ePL Degradation 4 hr (Ymin)” value under setting [2] was 90.24.
In the case of `O=C1CCC(N2Cc3cc(O[C@H]4CCN(Cc5cccc6ncncc56)C4)ccc3C2=O)C(=O)N1` (stereo partly drawn) [3-(1-oxo-5-{[(3S)-1-[(quinazolin-5-yl)methyl]pyrrolidin-3-yl]oxy}-2,3-dihydro-1H-isoindol-2-yl)piperidine-2,6-dione], the DC50 was determined as 0.408 µM. The “293T-LentiX WEE1-ePL Degradation 4 hr (Ymin)” value under setting [1] is given as 58.74.
`O=C1CCC(N2Cc3cc(O[C@H]4CCN(Cc5cccc6nccnc56)C4)ccc3C2=O)C(=O)N1` (stereo partly drawn) [3-(1-oxo-5-{[(3S)-1-[(quinoxalin-5-yl)methyl]pyrrolidin-3-yl]oxy}-2,3-dihydro-1H-isoindol-2-yl)piperidine-2,6-dione]: the DC50 is 0.174 µM. For the same compound, the “293T-LentiX WEE1-ePL Degradation 4 hr (Ymin)” value under setting [1] is reported as 53.34.
As for `O=C1CCC(N2Cc3ccc(O[C@@H]4CCN(Cc5cnc6ccccc6c5)C4)cc3C2=O)C(=O)N1` (stereo partly drawn) [3-(1-oxo-6-{[(3R)-1-[(quinolin-3-yl)methyl]pyrrolidin-3-yl]oxy}-2,3-dihydro-1H-isoindol-2-yl)piperidine-2,6-dione], the “293T-LentiX WEE1-ePL Degradation 4 hr (Ymin)” value under setting [1] turned out to be 89.42.
For `Cc1nc(C)c(CN2CC[C@@H](Oc3ccc4c(c3)CN(C3CCC(=O)NC3=O)C4=O)C2)s1` (stereo partly drawn) [3-(5-{[(3R)-1-[(2,4-dimethyl-1,3-thiazol-5-yl)methyl]pyrrolidin-3-yl]oxy}-1-oxo-2,3-dihydro-1H-isoindol-2-yl)piperidine-2,6-dione], under setting [2], the “293T-LentiX WEE1-ePL Degradation 4 hr (Ymin)” value was determined as 94.2.
As to `COC[C@@H]1CCC[C@@H](c2ccc3cc(CN4CC[C@H](Oc5ccc6c(c5)CN(C5CCC(=O)NC5=O)C6=O)C4)ccc3n2)C1` (stereo partly drawn) [3-(5-{[(3S)-1-({2-[(1R,3R)-3-(methoxymethyl)cyclohexyl]quinolin-6-yl}methyl)pyrrolidin-3-yl]oxy}-1-oxo-2,3-dihydro-1H-isoindol-2-yl)piperidine-2,6-dione], the DC50 was determined as 0.00217 µM. In addition, under setting [2], the “293T-LentiX WEE1-ePL Degradation 4 hr (Ymin)” value came out at 26.54.
As for `COC[C@H]1CCC[C@@H](c2ccc3cc(CN4CC[C@H](Oc5ccc6c(c5)CN(C5CCC(=O)NC5=O)C6=O)C4)ccc3n2)C1` (stereo partly drawn) [3-(5-{[(3S)-1-({2-[(1R,3S)-3-(methoxymethyl)cyclohexyl]quinolin-6-yl}methyl)pyrrolidin-3-yl]oxy}-1-oxo-2,3-dihydro-1H-isoindol-2-yl)piperidine-2,6-dione], the DC50 came to 0.00182 µM. For the same compound, the “293T-LentiX WEE1-ePL Degradation 4 hr (Ymin)” value under setting [2] is listed as 26.32.
As to `Nc1cccc(COc2ccccc2CN2CC[C@H](Oc3ccc4c(c3)CN(C3CCC(=O)NC3=O)C4=O)C2)c1` (stereo partly drawn) [3-(5-{[(3S)-1-({2-[(3-aminophenyl)methoxy]phenyl}methyl)pyrrolidin-3-yl]oxy}-1-oxo-2,3-dihydro-1H-isoindol-2-yl)piperidine-2,6-dione], under setting [1], the “293T-LentiX WEE1-ePL Degradation 4 hr (Ymin)” value is 92.17.
Consider `Nc1cccc(COc2cccc(CN3CC[C@H](Oc4ccc5c(c4)CN(C4CCC(=O)NC4=O)C5=O)C3)c2)c1` (stereo partly drawn) [3-(5-{[(3S)-1-({3-[(3-aminophenyl)methoxy]phenyl}methyl)pyrrolidin-3-yl]oxy}-1-oxo-2,3-dihydro-1H-isoindol-2-yl)piperidine-2,6-dione], for which the DC50 is 0.818 µM. Under setting [1], the “293T-LentiX WEE1-ePL Degradation 4 hr (Ymin)” value turned out to be 78.15.
As for `O=C1CCC(N2Cc3cc(O[C@H]4CCN(Cc5cccc6nccn56)C4)ccc3C2=O)C(=O)N1` (stereo partly drawn) [3-(5-{[(3S)-1-({imidazo[1,2-a]pyridin-5-yl}methyl)pyrrolidin-3-yl]oxy}-1-oxo-2,3-dihydro-1H-isoindol-2-yl)piperidine-2,6-dione], the DC50 is 0.183 µM. Besides, the “293T-LentiX WEE1-ePL Degradation 4 hr (Ymin)” value under setting [1] turned out to be 57.26.
Consider `O=C1CCC(N2Cc3cc(O[C@H]4CCN(Cc5ccc6cnccc6n5)C4)ccc3C2=O)C(=O)N1` (stereo partly drawn) [3-(5-{[(3S)-1-[(1,6-naphthyridin-2-yl)methyl]pyrrolidin-3-yl]oxy}-1-oxo-2,3-dihydro-1H-isoindol-2-yl)piperidine-2,6-dione], for which the DC50 stood at 0.109 µM. Moreover, the “293T-LentiX WEE1-ePL Degradation 4 hr (Ymin)” value under setting [1] came out at 42.7.
Take `O=C1CCC(N2Cc3cc(O[C@H]4CCN(Cc5ccnc6ncccc56)C4)ccc3C2=O)C(=O)N1` (stereo partly drawn) [3-(5-{[(3S)-1-[(1,8-naphthyridin-4-yl)methyl]pyrrolidin-3-yl]oxy}-1-oxo-2,3-dihydro-1H-isoindol-2-yl)piperidine-2,6-dione]: under setting [1], the “293T-LentiX WEE1-ePL Degradation 4 hr (Ymin)” value amounted to 96.5.
For the compound `Cc1nccc(CN2CC[C@H](Oc3ccc4c(c3)CN(C3CCC(=O)NC3=O)C4=O)C2)c1C` (stereo partly drawn) [3-(5-{[(3S)-1-[(2,3-dimethylpyridin-4-yl)methyl]pyrrolidin-3-yl]oxy}-1-oxo-2,3-dihydro-1H-isoindol-2-yl)piperidine-2,6-dione], the DC50 turned out to be 0.0545 µM. Further, under setting [1], the “293T-LentiX WEE1-ePL Degradation 4 hr (Ymin)” value came out at 43.42.
